Where two headings read alike, the source gives them in different places.
Legend:
Pim-1 [1] = target: T1, Pim-1 (Homo sapiens (Human), UniProt P11309); assay: Pim enzyme assay (HTRF, 96-well), Pim-1; assay type: biochemical; conditions: full length recombinant Pim-1, biotinylated-BAD (S112) peptide, 10-point curve, 2 h RT, read-out: Pim-1 IC50 IP
Summary of the method: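 HTRF detection of biotinylated BAD (S112) phosphorylation by full-length recombinant His-tagged Pim-1 or Pim-2 in 60 mM Hepes pH 7.0, 0.05% BSA, 2 mM DTT at 22 °C: 2 h for Pim-1, 45 min for Pim-2. Stopped with EDTA; IC50 from 4-parameter logistic fit of percent of control.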

Pim-2 [2] = target: T2, Pim-2 (Homo sapiens (Human), UniProt Q9P1W9); assay: Pim enzyme assay (HTRF, 96-well), Pim-2; assay type: biochemical; conditions: full length recombinant Pim-2, biotinylated-BAD (S112) peptide, 10-point curve, 45 min RT, read-out: Pim-2 IC50 IP
T2 sequence (Q9P1W9 whole entry): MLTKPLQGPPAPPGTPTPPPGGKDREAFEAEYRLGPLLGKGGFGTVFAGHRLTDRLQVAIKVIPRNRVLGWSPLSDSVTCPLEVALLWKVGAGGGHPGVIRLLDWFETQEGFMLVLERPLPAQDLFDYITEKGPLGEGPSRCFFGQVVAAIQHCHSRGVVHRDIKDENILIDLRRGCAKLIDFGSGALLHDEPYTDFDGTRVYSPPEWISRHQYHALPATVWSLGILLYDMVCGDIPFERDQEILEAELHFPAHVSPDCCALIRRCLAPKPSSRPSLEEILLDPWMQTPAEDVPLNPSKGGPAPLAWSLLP
Description: These cDNAs were used as templates in PCR reactions to produce full-length DNA clones of the PIMs. […] PCR products were digested with BclI and EcoRI for Pim-1 and BamHI and EcoRI for Pim-2 and ligated into a modified baculovirus transfer vector (pFastBac1) cleaved with BamHI and EcoRI. For bacterial expression, the same cleaved PCR products encoding Pim-1 or Pim-2 were ligated into a modified E. coli expression vector pET28(a) cleaved with BamHI and EcoRI. Amino-terminal hexahistidine tags followed by a thrombin cleavage site were previously added to the vectors using standard methods of molecular biology.
Recombinant baculoviruses expressing Pim-1 or Pim-2 were made using standard methods (Fastbac manual, Invitrogen, Carlsbad, Calif.). […] Cells were harvested by centrifugation and frozen at −80 C. For E. coli expression, cells carrying pET28-His6-Th-Pim-1 or pET28-His6-Th-Pim-2 were picked from a single colony and grown o/n in LB media. The o/n culture was used to inoculate a 2 liter flask with 500 mL media. This was grown o/n and used to inoculate 15-20 liters of Terrific Broth in a New Brunswick Scientific fermentor. The E. coli were grown at 37° C. to and OD600 >1.6. The temperature was dropped to 18° C. and o/n expression was induced with 0.5 mM IPTG. Cells were harvested by centrifugation and frozen at −80° C.
The slurry was centrifuged at 1,000×g for 5 min, the supernatant decanted, and the resin suspended in 40 mL of lysis wash buffer (lysis buffer at 0.75 M NaCl). This step was repeated 3× and the resin was transferred to a 2.5 cm glass column. Ten column volumes of wash buffer (0.05 M HEPES, pH 8.0, 0.1 M NaCl, 0.01 M 2-mercaptoethanol, 10%(w/v) glycerol) were applied to the resin followed by 10 column volumes of elution buffer (0.05 M HEPES, pH 8.0, 0.25 M NaCl, 0.01 M 2-mercaptoethanol, 10%(w/v) glycerol, 0.1 M imidazole). Fractions were analyzed by SDS-PAGE and those containing the protein of interest were pooled and concentrated. The concentrated protein was applied to an Amersham Superdex 75 (XK 26/60) column equilibrated in 0.025 M Tris-HCl, pH 7.5, 0.1 M NaCl, 0.01 M 2-mercaptoethanol, 10% (w/v) glycerol. […] Fractions containing the monomeric protein of interest were pooled, concentrated to ˜2 mg/mL, and stored at −80° C.
The phosphorylation of biotinylated-BAD (S112) peptide by full length recombinant Pim-1, Pim-2, or Pim-3 protein was detected with streptavidin:Allophycocyanin (APC) conjugate and a europium (Eu) labeled antibody directed against phosphorylated-BAD (S112). […] The fluorescence is directly proportional to the amount of phosphorylated BAD peptide present in the reaction. […] A reference compound was included on each assay plate in order to validate that plate; on one plate of every assay run, two additional reference compounds were included. The final buffer conditions were as follows: 60 mM Hepes, pH 7.0, 0.05% BSA, 2 mM DTT. Incubations were carried out at RT (22° C.) for 2 h for Pim-1, 1 hour and 30 min for Pim-3, and 45 min for Pim-2. The reaction was stopped by the addition of 3 mM EDTA, and fluorescence was measured by an HTRF® Rubystar microplate reader. For each plate, percent of control (POC) values were calculated for each well. Values for the IC50 IP were estimated using a standard 4-parameter logistic model.

[3] = test system: KMS-12-BM myeloma cell line; assay: Pim KMS-12 cell assay (phospho-BAD S112 / total BAD, MSD); conditions: Homo sapiens, KMS-12-BM
Pim-1 [4] = target: T1, Pim-1; assay: Pim-Mn enzyme assay (HTRF, 384-well), Pim-1; assay type: biochemical; conditions: Pim-1 enzyme 5 pM, ATP 1.5 μM, BAD (S112) 0.5 μM, HTRF, 22-point curve; read-out: Pim-1-Mn IC50 IP
Pim-2 [5] = target: T2, Pim-2; assay: Pim-Mn enzyme assay (HTRF, 384-well), Pim-2; assay type: biochemical; conditions: Pim-2 enzyme 0.5 pM, ATP 1.5 μM, BAD (S112) 0.5 μM, HTRF, 22-point curve; read-out: Pim-2-Mn IC50 IP
[6] = read-out: KMS-12-BM IC50 IP, KMS-12-BM cells, phospho-BAD (S112) vs total BAD, 1 hour 50 min with compound

T1 sequence (P11309 whole entry): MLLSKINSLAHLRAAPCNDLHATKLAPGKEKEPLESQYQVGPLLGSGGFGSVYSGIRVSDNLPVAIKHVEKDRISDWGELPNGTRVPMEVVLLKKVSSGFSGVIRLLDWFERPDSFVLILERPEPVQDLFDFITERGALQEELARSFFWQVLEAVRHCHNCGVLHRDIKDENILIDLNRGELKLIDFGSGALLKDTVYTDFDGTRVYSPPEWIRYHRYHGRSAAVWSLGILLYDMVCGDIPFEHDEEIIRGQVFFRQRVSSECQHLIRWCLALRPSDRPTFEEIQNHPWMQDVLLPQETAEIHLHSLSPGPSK

Compound	IC50 (Pim-1 [1]) [nM]	IC50 (Pim-2 [2]) [nM]	IC50 [3, 6] [nM]	IC50 ([3]; read-out: KMS-12-BM IC50 IP) [nM]	IC50 (Pim-1 [4]) [nM]	IC50 (Pim-2 [5]) [nM]
O=C1NCCc2[nH]c(-c3cccc4ccc(N[C@H]5CCCNC5)nc34)cc21 [Example 123, (S)-2-(2-(piperidin-3-ylamino)quinolin-8-yl)-6,7-dihydro-1H-pyrrolo[3,2-c]pyridin-4(5H)-one]	1	12	2510	–	–	–
O=C1NCCc2[nH]c(-c3cccc4ccc(Nc5cccc(F)c5)nc34)cc21 [Example 45, 2-(2-((3-fluorophenyl)amino)-8-quinolinyl)-1,5,6,7-tetrahydro-4H-pyrrolo[3,2-c]pyridin-4-one]	1.5	7.7	1450	–	–	–
O=c1[nH]cnc2[nH]c(-c3cccc4ccc(Nc5ccccc5)nc34)cc12 [Example 16, 6-(2-(phenylamino)quinolin-8-yl)-3H-pyrrolo[2,3-d]pyrimidin-4(7H)-one]	2.7	13.5	–	3850	–	–
O=C1NCCc2[nH]c(-c3cccc4ccc(Oc5ccccc5F)nc34)cc21 [Example 11, 2-(2-(2-fluorophenoxy)quinolin-8-yl)-6,7-dihydro-1H-pyrrolo[3,2-c]pyridin-4(5H)-one]	6.1	10.3	7000	–	–	–
O=C1NCCc2[nH]c(-c3cccc4ccc(Oc5cccc(F)c5)nc34)cc21 [Example 42, 2-(2-(3-fluorophenoxy)-8-quinolinyl)-1,5,6,7-tetrahydro-4H-pyrrolo[3,2-c]pyridin-4-one]	3.6	9.1	3460	–	–	–
CCN(c1ccccc1)c1cnc2cccc(-c3cc4c([nH]3)CCNC4=O)c2n1 [Example 186, 2-(3-(ethyl(phenyl)amino)quinoxalin-5-yl)-6,7-dihydro-1H-pyrrolo[3,2-c]pyridin-4(5H)-one]	2.2	4.3	1490	–	–	–
Nc1ccc(-c2ccc3cccc(-c4cc5c([nH]4)CCNC5=O)c3n2)c(F)n1 [Example 87, 2-(2-(6-amino-2-fluoropyridin-3-yl)quinolin-8-yl)-6,7-dihydro-1H-pyrrolo[3,2-c]pyridin-4(5H)-one]	3.8	14.7	1780	–	–	–
O=C1NCCc2[nH]c(-c3cccc4ccc(Nc5ccccc5Cl)nc34)cc21 [Example 108, 2-(2-((2-chlorophenyl)amino)quinolin-8-yl)-6,7-dihydro-1H-pyrrolo[3,2-c]pyridin-4(5H)-one]	1.5	13.4	6740	–	–	–
Cn1cc(-c2ccc3ccc(F)c(-c4cc5c([nH]4)CCNC5=O)c3n2)cn1 [Example 229, 2-(7-fluoro-2-(1-methyl-1H-pyrazol-4-yl)quinolin-8-yl)-6,7-dihydro-1H-pyrrolo[3,2-c]pyridin-4(5H)-one]	92	92	–	–	90.9	–
Cc1nc2cccc(-c3cc4c([nH]3)CCNC4=O)c2nc1NC1CCCNC1=O (racemic) [Example 200, rac-2-(2-methyl-3-((2-oxopiperidin-3-yl)amino)quinoxalin-5-yl)-6,7-dihydro-1H-pyrrolo[3,2-c]pyridin-4(5H)-one]	110	85.7	–	–	53.6	41.8
O=C1NCCn2cc(-c3cccc4ccc(C(=O)N5CCOCC5)nc34)cc21 [Example 167, 7-(2-(morpholine-4-carbonyl)quinolin-8-yl)-3,4-dihydropyrrolo[1,2-a]pyrazin-1(2H)-one]	671	667	–	–	–	–
O=C1NCCc2[nH]c(-c3cccc4ccc(N[C@@H]5CCCNC5)nc34)cc21 [Example 124, (R)-2-(2-(piperidin-3-ylamino)quinolin-8-yl)-6,7-dihydro-1H-pyrrolo[3,2-c]pyridin-4(5H)-one]	6.4	141	–	–	–	–
Cc1nc2cccc(-c3cc4c([nH]3)CCNC4=O)c2nc1N1CCC1 [Example 139, 2-(3-(azetidin-1-yl)-2-methylquinoxalin-5-yl)-6,7-dihydro-1H-pyrrolo[3,2-c]pyridin-4(5H)-one]	17.6	16	–	–	24.2	19.7

— patent publication US9394297B2, “Amides as pim inhibitors” (AMGEN INC., priority 2012, dated 2016)
